Data published in patent publication US20090111801A1, “SUBSTITUTED PYRAZINONE DERIVATIVES FOR USE AS A MEDICINE” (Janssen Pharmaceutica N.V., priority 2006, published 2009).

Key:
hα2A receptor = molecular target: T1, hα2A receptor (Homo sapiens, UniProt P08913); test: Radioligand binding experiment for α2A-adrenoceptor ([3H]raulwolscine, CHO cell membranes); conditions: [3H]raulwolscine binding; for IC50: read-out: h-α2A pIC50 (converted)
T1 construct: expressed in transfected cells; host or cells: CHO cells, stably transfected; membrane preparation
T1 sequence (P08913 1-465): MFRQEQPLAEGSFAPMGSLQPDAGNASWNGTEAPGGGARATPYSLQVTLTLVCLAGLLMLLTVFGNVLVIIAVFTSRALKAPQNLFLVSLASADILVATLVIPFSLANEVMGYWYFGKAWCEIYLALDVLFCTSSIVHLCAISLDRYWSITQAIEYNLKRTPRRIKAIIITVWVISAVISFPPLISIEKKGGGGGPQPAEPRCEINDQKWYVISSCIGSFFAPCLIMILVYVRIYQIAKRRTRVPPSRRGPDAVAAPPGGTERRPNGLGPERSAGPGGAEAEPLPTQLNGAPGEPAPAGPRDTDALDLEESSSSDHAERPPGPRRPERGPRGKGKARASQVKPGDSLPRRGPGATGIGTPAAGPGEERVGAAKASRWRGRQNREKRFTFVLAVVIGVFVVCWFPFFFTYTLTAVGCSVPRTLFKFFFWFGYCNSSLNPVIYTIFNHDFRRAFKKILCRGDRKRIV
Experimental: (§1) The interaction of a compound of Formula (I) with α2-adrenoceptor receptors was assessed in in vitro radioligand binding experiments. In general, a low concentration of a radioligand with a high binding affinity for a particular receptor or transporter is incubated with a sample of a tissue preparation enriched in a particular receptor or transporter or with a preparation of cells expressing cloned human receptors in a buffered medium. During the incubation, the radioligand binds to the receptor or transporter. When equilibrium of binding is reached, the receptor bound radioactivity is separated from the non-bound radioactivity, and the receptor- or transporter-bound activity is counted. The interaction of the test compounds with the receptor is assessed in competition binding experiments. Various concentrations of the test compound are added to the incubation mixture containing the receptor- or transporter preparation and the radioligand. The test compound in proportion to its binding affinity and its concentration inhibits binding of the radioligand. The radioligand used for hα2A and hα2C receptor binding was [^3H]-raulwolscine.
(§2) CHO cells, stabile transfected with human adrenergic-α2A and α2C receptor cDNA, were cultured in Dulbecco's Modified Eagle's Medium (DMEM)/Nutrient mixture Ham's F12 (ratio 1:1)(Gibco, Gent-Belgium) supplemented with 10% heat inactivated fetal calf serum (Life Technologies, Merelbeke-Belgium) and antibiotics (100 IU/ml penicillin G, 100 μg/ml streptomycin sulphate, 110 μg/ml pyruvic acid and 100 μg/ml L-glutamine). One day before collection, cells were induced with 5 mM sodiumbutyrate. Upon 80-90% of confluence, cells were scraped in phosphate buffered saline without Ca^2+ and Mg^2+ and collected by centrifugation at 1500×g for 10 minutes. The cells were homogenised in Tris-HCl 50 mM using an Ultraturrax homogenizer and centrifuged for 10 minutes at 23,500×g. The pellet was washed once by resuspension and rehomogenization and the final pellet was resuspended in Tris-HCl, divided in 1 ml aliquots and stored at −70° C.
(§3) Membranes were thawed and re-homogenized in incubation buffer (glycylglycine 25 mM, pH 8.0). […] Filters were rinsed extensively with ice-cold rinsing buffer (Tris-HCl 50 mM pH 7.4). Filter-bound radioactivity was determined by scintillation counting in a Topcount (Packard, Meriden, Conn.) and results were expressed as counts per minute (cpm). Non-specific binding was determined in the presence of 1 μM oxymetazoline for the hα2A receptor and 1 μM spiroxatrine for hα2C receptor.
(§4) Data from assays in the presence of compound were calculated as a percentage of total binding measured in the absence of test compound. Inhibition curves, plotting percent of total binding versus the log value of the concentration of the test compound, were automatically generated, and sigmoidal inhibition curves were fitted using non-linear regression. The pIC50 values of test compounds were derived from individual curves.

hα2C receptor = molecular target: T2, hα2C receptor (Homo sapiens, UniProt P18825); test: Radioligand binding experiment for α2C-adrenoceptor ([3H]raulwolscine, CHO cell membranes); conditions: [3H]raulwolscine binding; for IC50: read-out: h-α2C pIC50 (converted)
T2 construct: expressed in transfected cells; host or cells: CHO cells, stably transfected; membrane preparation
T2 sequence (P18825 1-462): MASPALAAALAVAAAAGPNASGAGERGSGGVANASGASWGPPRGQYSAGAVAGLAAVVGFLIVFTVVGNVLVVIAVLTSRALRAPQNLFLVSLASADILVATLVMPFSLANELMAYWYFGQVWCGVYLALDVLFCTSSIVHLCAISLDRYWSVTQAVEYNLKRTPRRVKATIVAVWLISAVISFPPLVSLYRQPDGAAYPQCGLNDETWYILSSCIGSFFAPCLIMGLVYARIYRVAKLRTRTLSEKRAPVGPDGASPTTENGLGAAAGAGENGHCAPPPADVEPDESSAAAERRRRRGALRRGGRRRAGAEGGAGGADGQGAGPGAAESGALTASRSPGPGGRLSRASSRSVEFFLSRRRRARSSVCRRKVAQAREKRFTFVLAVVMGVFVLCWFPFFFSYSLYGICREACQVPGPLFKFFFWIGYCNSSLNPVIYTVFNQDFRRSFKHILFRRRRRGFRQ
Experimental: as §1, §2, §3, §4

5HT-Transporter = molecular target: T3, 5HT-Transporter (Homo sapiens, UniProt P31645); test: Binding experiment for the 5HT-transporter ([3H]paroxetine, human platelet membranes); conditions: [3H]paroxetine 0.5 nM; for IC50: read-out: h-5HTT pIC50 (converted)
T3 construct: Human platelet membranes (Oceanix Biosciences Corporation, Hanover, Md., USA) were thawed; tissue Oceanix Biosciences Corporation, Hanover, Md., USA; host or cells: human platelet membranes
T3 sequence (P31645 whole entry): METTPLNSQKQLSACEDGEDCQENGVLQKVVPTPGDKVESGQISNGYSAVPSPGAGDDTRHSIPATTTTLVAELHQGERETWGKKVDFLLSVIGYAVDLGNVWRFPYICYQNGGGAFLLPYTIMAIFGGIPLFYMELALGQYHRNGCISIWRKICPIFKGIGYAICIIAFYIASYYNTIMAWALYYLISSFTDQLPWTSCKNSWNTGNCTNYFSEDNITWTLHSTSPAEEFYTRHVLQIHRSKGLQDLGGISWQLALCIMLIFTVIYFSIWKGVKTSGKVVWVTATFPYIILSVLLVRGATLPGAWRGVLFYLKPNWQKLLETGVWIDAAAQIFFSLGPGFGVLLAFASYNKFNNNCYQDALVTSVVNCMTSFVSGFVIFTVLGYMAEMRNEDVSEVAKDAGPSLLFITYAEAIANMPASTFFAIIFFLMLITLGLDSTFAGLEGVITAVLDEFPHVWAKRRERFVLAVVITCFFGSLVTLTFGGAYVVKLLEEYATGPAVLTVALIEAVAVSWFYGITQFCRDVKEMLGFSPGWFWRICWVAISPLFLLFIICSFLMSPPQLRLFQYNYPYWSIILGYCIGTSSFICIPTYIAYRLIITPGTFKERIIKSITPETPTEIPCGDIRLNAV
Experimental: as §1
Human platelet membranes (Oceanix Biosciences Corporation, Hanover, Md., USA) were thawed, diluted in buffer (Tris-HCl 50 mM, 120 mM NaCl and 5 mM KCl) and quickly (max 3 s) homogenised with an Ultraturrax homogenizer. […] Incubation was stopped by rapid filtration of the incubation mixture over GF/B filters, pre-wetted with 0.1% polyethyleneamine, using a Filtermate196 harvester (Packard, Meriden, Conn.). Filters were rinsed extensively with ice-cold buffer and radioactivity on the filters was counted in a Topcount liquid scintillation counter (Packard, Meriden, Conn.). Data were expressed as cpm. Imipramine (at 1 μM final concentration) was used to determine the non-specific binding.
as §4

| Structure (SMILES) | IC50 (hα2A receptor) [nM] | IC50 (hα2C receptor) [nM] | IC50 (5HT-Transporter) [nM] | h-α2A pIC50 (hα2A receptor) | h-α2C pIC50 (hα2C receptor) | h-5HTT pIC50 (5HT-Transporter) |
| --- | --- | --- | --- | --- | --- | --- |
| C/C(=C\c1ccccc1)CN1CCC(Nc2nccn(-c3ccc(N4CCC(N5CCCC5)CC4)cc3)c2=O)CC1 [2-19] | 50.1 | 5.01 | 631 | – | – | – |
| C/C(=C\c1ccccc1)CN1CCC(Nc2nccn(-c3ccc(C(=O)NCc4ccc(F)cc4)cc3)c2=O)CC1 [1-56] | 158 | 15.8 | 251 | – | – | – |
| C/C(=C\c1ccccc1)CN1CCC(N(C)c2nccn(CCN3CCCCC3)c2=O)CC1 [15-3] | 100 | 20 | 5010 | – | – | – |
| C/C(=C\c1ccccc1)CN1CCC(Nc2nccn(Cc3ccc(CN)cc3)c2=O)CC1 [1-7] | 15.8 | 3.16 | 794 | – | – | – |
| COCCN(C)Cc1ccc(-n2ccnc(NC3CCN(C/C(C)=C/c4ccccc4)CC3)c2=O)cc1 [1-26] | – | – | – | 7.2 | 8.7 | 5.8 |
| C/C(=C\c1ccccc1)CN1CCC(Nc2nccn(-c3ccc(CNC(=O)OC(C)(C)C)cc3)c2=O)CC1 [1-91] | – | – | – | 6.5 | 7.7 | 6.1 |
| C/C(=C\c1ccccc1)CN1CCC(Nc2nccn(Cc3cccc4ccccc34)c2=O)CC1 [5-34] | 100 | 25.1 | 398 | – | – | – |
| C/C(=C\c1ccccc1)CN1CCC(Nc2nccn(Cc3ccccn3)c2=O)CC1 [6-13] | 200 | 31.6 | 3980 | – | – | – |
| C/C(=C\c1ccccc1)CN1CCC(Nc2nccn(-c3cccc(N4CCN(Cc5ccccc5)CC4)c3)c2=O)CC1 [2-31] | 31.6 | 6.31 | 398 | – | – | – |
| C/C(=C\c1ccccc1)CN1CCC(Nc2nccn(CC(=O)N(C)C3CCCCC3)c2=O)CC1 [1-20] | 79.4 | 3.98 | 1000 | – | – | – |
| C/C(=C\c1ccccc1)CN1CCC(Nc2nccn(-c3ccc(C(=O)N4CCN(Cc5ccccc5)CC4)cc3)c2=O)CC1 [2-32] | 200 | 12.6 | 1260 | – | – | – |
| CCOC(=O)CCCCn1ccnc(NC2CCN(C/C=C/c3ccccc3)CC2)c1=O [16-11] | 794 | 158 | 631 | – | – | – |
| CC(=O)CN(C)CCCn1ccnc(NC2CCN(C/C(C)=C/c3ccccc3)CC2)c1=O [1-38] | 316 | 12.6 | 7940 | – | – | – |
| CCOC(=O)N1CCC(NCc2cccc(-n3ccnc(NC4CCN(C/C(C)=C/c5ccccc5)CC4)c3=O)c2)CC1 [1-127] | – | – | – | 7.3 | 8.0 | 5.5 |
| C/C(=C\c1ccccc1)CN1CCC(Nc2nc(Cl)c(-c3cccc(Br)c3)[nH]c2=O)CC1 [17-1] | 1000 | 200 | 316 | – | – | – |
| COC(=O)CN(C)Cc1cccc(-n2ccnc(NC3CCN(C/C(C)=C/c4ccccc4)CC3)c2=O)c1 [1-98] | – | – | – | 7.5 | 8.9 | 6.0 |
| C/C(=C\c1ccccc1)CN1CCC(Nc2nccn(-c3ccc(C(=O)NC4CCN(Cc5ccccc5)CC4)cc3)c2=O)CC1 [1-129] | 63.1 | 25.1 | 501 | – | – | – |

| Structure (SMILES) | IC50 (hα2A receptor) [nM] | IC50 (hα2C receptor) [nM] | IC50 (5HT-Transporter) [nM] | h-α2A pIC50 (hα2A receptor) | h-α2C pIC50 (hα2C receptor) | h-5HTT pIC50 (5HT-Transporter) |
| --- | --- | --- | --- | --- | --- | --- |
| C/C(=C\c1ccccc1)CN1CCC(Nc2nccn(CC(=O)NCc3ccco3)c2=O)CC1 [1-147] | 50.1 | 3.16 | 3160 | – | – | – |
| COCCNC(=O)c1ccc(-n2ccnc(NC3CCN(C/C(C)=C/c4ccccc4)CC3)c2=O)cc1 [1-22] | 100 | 12.6 | 631 | – | – | – |
| C/C(=C\c1ccccc1)CN1CCC(Nc2nccn(CC(=O)NCCCc3ccccc3)c2=O)CC1 [1-60] | 79.4 | 10 | 794 | – | – | – |
| CCN(CC)c1ccc(C(=O)Cn2ccnc(NC3CCN(C/C(C)=C/c4ccccc4)CC3)c2=O)cc1 [1-18] | 39.8 | 12.6 | 1000 | – | – | – |
| C/C(=C\c1ccccc1)CN1CCC(Nc2nccn(-c3cccc(N4CCC(N5CCCC5)CC4)c3)c2=O)CC1 [2-18] | 12.6 | 1.26 | 794 | – | – | – |
| C/C(=C\c1ccccc1)CN1CCC(Nc2nccn(-c3ccccc3)c2=O)CC1 [5-1] | 31.6 | 5.01 | 1260 | – | – | – |
| C/C(=C\c1ccccc1)CN1CCC(Nc2nccn(Cc3ccc(-c4ccccc4)cc3)c2=O)CC1 [5-32] | 316 | 126 | 316 | – | – | – |
| C/C(=C\c1ccccc1)CN1CCC(Nc2nccn(CCCN(Cc3ccccc3)C(=O)Cc3ccccc3)c2=O)CC1 [1-89] | 200 | 12.6 | 794 | – | – | – |
| CNCc1ccc(Cn2ccnc(NC3CCN(C/C(C)=C/c4ccccc4)CC3)c2=O)cc1 [1-9] | 31.6 | 3.98 | 1580 | – | – | – |
| C/C(=C\c1ccccc1)CN1CCC(Nc2nccn(Cc3ccc(CNC(=O)NCc4ccccc4)cc3)c2=O)CC1 [1-124] | 251 | 63.1 | 501 | – | – | – |
| C/C(=C\c1ccccc1)CN1CCC(Nc2nccn(-c3ccc(CNC(=O)c4ccno4)cc3)c2=O)CC1 [1-153] | – | – | – | 6.9 | 8.9 | 6.1 |
| CN(C)C(=O)Cn1ccnc(NC2CCN(C/C=C/c3ccccc3)CC2)c1=O [16-3] | 2510 | 316 | > 10000 | – | – | – |
| COCCN(C)C(=O)Cn1ccnc(NC2CCN(C/C(C)=C/c3ccccc3)CC2)c1=O [1-24] | 126 | 7.94 | 3160 | – | – | – |
| COC(=O)C1CCN(C(=O)c2ccc(-n3ccnc(NC4CCN(C/C(C)=C/c5ccccc5)CC4)c3=O)cc2)CC1 [2-16] | 50.1 | 5.01 | 501 | – | – | – |
| COc1cc(CNC(=O)Cn2ccnc(NC3CCN(C/C(C)=C/c4ccccc4)CC3)c2=O)cc(OC)c1 [1-65] | 100 | 3.98 | 794 | – | – | – |
| C/C(=C\c1ccccc1)CN1CCC(Nc2nccn(CCCN(C)S(=O)(=O)c3ccccc3)c2=O)CC1 [1-160] | 158 | 12.6 | 501 | – | – | – |
| C/C(=C\c1ccccc1)CN1CCC(Nc2nccn(-c3ccc(CNCCN4CCOCC4)cc3)c2=O)CC1 [1-150] | 100 | 3.98 | 794 | – | – | – |
